How the values were obtained:
[1] = test system: Ba/F3 EGFR D770_N771insSVD; assay: Growth inhibition of Ba/F3 EGFR mutant cells (CellTiter-Glo); format: cell-based; conditions: Ba/F3 EGFR-D770-N771ins_SVD, 72 hours
Description: (§1) The activity of the compounds of the present invention against Ba/F3 EGFR V769_D770insASV and Ba/F3 EGFR D770_N771insSVD mutant cell lines was measured using the CellTiter-Glo system purchased from Promega as follows. CellTiter-Glo assay is a method to measure cell viability by monitoring ATP present in cells. Ba/F3 EGFR V769_D770insASV and Ba/F3 EGFR D770_N771insSVD mutant cell lines were purchased from Crown Biosciences. Ba/F3 EGFR V769_D770insASV and Ba/F3 EGFR D770_N771insSVD mutant cell lines were cultured in RPMI containing 10% FBS and 1% penicillin-streptomycin with 1 μg/mL of puromycin in a 5% CO2 incubator at 37° C.
(§2) The analysis of the ability of the compounds to inhibit the growth of EGFR mutant cells was performed according to the following method. 1,000 cells/100 μL were seeded in a 96-well cell culture plate, and 24 hours thereafter, the compounds represented by Formula 1 were treated with 0 μM, 0.01 μM, 0.03 μM, 0.1 μM, 0.3 μM, 1 μM, 3 μM, and 10 μM. After incubating for 72 hours, the plate treated with the compounds were left at room temperature for 30 minutes, 100 μL of a reagent was further added thereto, and then shaken at room temperature for 10 minutes. Finally, using equipment, the ratio of […] was measured to confirm the cell growth inhibition ability of the compounds. The measured values at 8 compound concentrations were analyzed using the Prism program (version 5.01, Graphpad Software, Inc.), and the IC50 (μM) values, which are measures of the compounds' inhibitory ability, were calculated.

[2] = test system: Ba/F3 EGFR V769_D770insASV; assay: as above; format: cell-based; conditions: 72 hours
Description: as §1, §2

[3] = target: HER2 A775_G776insYVMA (Homo sapiens (Human), UniProt P04626, INS775YVMA); assay: HTRF inhibitory activity against HER2 mutant enzyme; format: biochemical; conditions: recombinant enzyme, 37° C. for 2 hours
In short: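 Recombinant HER2 A775_G776insYVMA preincubated with compound, then […] and biotinylated peptide ([…]) added; 2 h at 37 °C in Tris-HCl pH 7.5 buffer with MgCl2, DTT. HTRF detection (Eu anti-phosphotyrosine/streptavidin-XL665); IC50 from 7 concentrations.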

[4] = target: EGFR A763_Y764insFHEA (Homo sapiens (Human), UniProt P00533, INS763FHEA); assay: HTRF inhibitory activity against EGFR mutant enzyme (EGFR A763_Y764insFHEA); format: biochemical; conditions: recombinant enzyme, 37° C. for 2 hours
In short: (§3)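 Recombinant EGFR del19 or A763_Y764insFHEA was premixed with compound in 50 mM Tris pH 7.5 with 7.5 mM MgCl2 and 1 mM DTT. ATP (50 mM as printed) and biotin-peptide (0.5 mM) were added and reacted 2 h at 37 °C. The HTRF 665/615 read used streptavidin-XL665 and Eu anti-phosphotyrosine. IC50 was fitted from 7 concentrations.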

[5] = test system: Ba/F3 HER2 G776delinsVC; assay: Growth inhibition of Ba/F3 HER2 mutant cells (CellTiter-Glo); format: cell-based; conditions: Mus musculus, BaF3, 72 hours
Description: as §1, with “HER2 A775_G776insYVMA” for “EGFR V769_D770insASV”, “HER2 G776delinsVC” for “EGFR D770_N771insSVD”, “a” for “a 5%”
as §2, with “HER2” for “EGFR”, “reacting” for “incubating”, “was” for “was further”

[6] = test system: Ba/F3 HER2 A775_G776insYVMA; assay: as above; format: cell-based; conditions: Mus musculus, BaF3, 72 hours
Description: as §1, with “HER2 A775_G776insYVMA” for “EGFR V769_D770insASV”, “HER2 G776delinsVC” for “EGFR D770_N771insSVD”, “a” for “a 5%”
as §2, with “HER2” for “EGFR”, “reacting” for “incubating”, “was” for “was further”

[7] = target: EGFR del19 (Homo sapiens (Human), UniProt P00533, DEL746-750); assay: HTRF inhibitory activity against EGFR mutant enzyme (EGFR del19); format: biochemical; conditions: recombinant enzyme, 37° C. for 2 hours
In short: as §3

Chain of HER2 A775_G776insYVMA (P04626 other isoform, or with tags, fused parts or gaps del 1-675/ins YVMA behind 775 limits assumed): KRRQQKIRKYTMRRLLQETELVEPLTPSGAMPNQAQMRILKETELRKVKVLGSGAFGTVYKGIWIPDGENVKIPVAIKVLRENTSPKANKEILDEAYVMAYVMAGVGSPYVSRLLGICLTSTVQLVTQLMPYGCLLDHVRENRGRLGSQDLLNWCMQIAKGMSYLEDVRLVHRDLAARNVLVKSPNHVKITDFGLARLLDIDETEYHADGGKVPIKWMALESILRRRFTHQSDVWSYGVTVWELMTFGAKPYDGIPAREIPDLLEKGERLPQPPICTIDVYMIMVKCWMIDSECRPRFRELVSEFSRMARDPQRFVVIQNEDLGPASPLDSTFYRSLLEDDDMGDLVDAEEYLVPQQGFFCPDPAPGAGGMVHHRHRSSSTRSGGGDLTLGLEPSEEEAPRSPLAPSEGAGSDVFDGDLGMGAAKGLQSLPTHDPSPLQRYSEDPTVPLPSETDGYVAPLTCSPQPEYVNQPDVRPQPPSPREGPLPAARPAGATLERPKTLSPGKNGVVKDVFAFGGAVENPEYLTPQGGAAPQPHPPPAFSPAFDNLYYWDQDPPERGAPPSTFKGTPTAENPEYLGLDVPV
Chain of EGFR A763_Y764insFHEA (P00533 other isoform, or with tags, fused parts or gaps del 1-694/ins FHEA behind 763 limits assumed): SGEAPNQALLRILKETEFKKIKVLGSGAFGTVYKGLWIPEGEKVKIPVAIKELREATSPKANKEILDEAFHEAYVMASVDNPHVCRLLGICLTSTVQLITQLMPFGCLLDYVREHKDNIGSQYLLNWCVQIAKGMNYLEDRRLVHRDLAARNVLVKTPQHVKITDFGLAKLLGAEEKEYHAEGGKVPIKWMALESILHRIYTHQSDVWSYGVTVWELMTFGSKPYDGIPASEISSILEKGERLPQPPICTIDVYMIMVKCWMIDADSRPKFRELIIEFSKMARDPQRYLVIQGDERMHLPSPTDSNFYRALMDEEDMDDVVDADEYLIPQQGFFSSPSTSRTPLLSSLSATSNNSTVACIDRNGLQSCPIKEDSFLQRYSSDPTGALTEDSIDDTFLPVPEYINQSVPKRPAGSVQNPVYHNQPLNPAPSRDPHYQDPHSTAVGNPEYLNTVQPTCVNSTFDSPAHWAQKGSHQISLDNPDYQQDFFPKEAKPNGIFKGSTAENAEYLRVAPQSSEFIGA
Chain of EGFR del19 (P00533 other isoform, or with tags, fused parts or gaps del 1-668/del 746-750 limits assumed): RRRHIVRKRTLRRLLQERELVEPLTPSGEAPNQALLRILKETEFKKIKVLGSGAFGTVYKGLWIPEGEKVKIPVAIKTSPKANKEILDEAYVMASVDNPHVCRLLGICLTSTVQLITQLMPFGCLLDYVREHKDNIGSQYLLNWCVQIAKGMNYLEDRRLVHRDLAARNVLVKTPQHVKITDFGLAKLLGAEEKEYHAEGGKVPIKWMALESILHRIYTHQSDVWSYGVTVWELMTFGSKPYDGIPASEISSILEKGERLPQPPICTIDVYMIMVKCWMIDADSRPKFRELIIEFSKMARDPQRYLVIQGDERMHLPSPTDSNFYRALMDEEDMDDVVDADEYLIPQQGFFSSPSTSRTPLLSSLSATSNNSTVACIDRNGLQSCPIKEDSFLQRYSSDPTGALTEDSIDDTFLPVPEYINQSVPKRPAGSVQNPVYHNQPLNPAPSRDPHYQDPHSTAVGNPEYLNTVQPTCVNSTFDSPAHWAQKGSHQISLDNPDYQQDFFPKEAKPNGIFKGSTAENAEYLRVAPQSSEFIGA

Row | IC50 [1] [nM] | IC50 [2] [nM] | IC50 [3] [nM] | IC50 [4] [nM] | IC50 [5] [nM] | IC50 [6] [nM] | IC50 [7] [nM] | SMILES
1 | 50 to 100 | < 10 | 8 | < 1 | < 10 | 30 to 50 | < 1 | C=CC(=O)Nc1cc(Nc2ncc(Cl)c(Nc3ccc(C)c(C)c3N(C)S(C)(=O)=O)n2)c(OC)cc1N(C)CCN(C)C [Example 43, N-(5-((5-chloro-4-((3,4-dimethyl-2-(N-methylmethylsulfonamido)phenyl)amino)pyrimidin-2-yl)amino)-2-((2-(dimethylamino)ethyl)(methyl)amino)-4-methoxyphenyl)acrylamide]
2 | 10 to 30 | 10 to 30 | 15 | < 1 | – | 10 to 30 | < 1 | C=CC(=O)Nc1cc(Nc2ncc(C(F)(F)F)c(Nc3cccc4c3N(S(C)(=O)=O)CC4)n2)c(OC)cc1N(C)CCN(C)C [Example 65, N-(2-((2-(dimethylamino)ethyl)(methyl)amino)-4-methoxy-5-((4-((1-(methylsulfonyl)indolin-7-yl)amino)-5-(trifluoromethyl)pyrimidin-2-yl)amino)phenyl)acrylamide]
3 | – | 10 to 30 | 37 | 2 | 10 to 30 | > 100 | < 1 | C=CC(=O)Nc1cc(Nc2ncc(Cl)c(Nc3ccccc3NS(=O)(=O)CC)n2)c(OC)cc1N(C)CCN(C)C [Example 4, N-(5-((5-chloro-4-((2-(ethylsulfonamido)phenyl)amino)pyrimidin-2-yl)amino)-2-((2-(dimethylamino)ethyl)(methyl)amino)-4-methoxyphenyl)acrylamide]
4 | 10 to 30 | 10 to 30 | 10 | – | – | 10 to 30 | – | C=CC(=O)Nc1cc(Nc2ncc(Cl)c(Nc3cccc4c3N(S(C)(=O)=O)CCC4)n2)c(OC)cc1N(C)CCN1CCOCC1 [Example 53, N-(5-((5-chloro-4-((1-(methylsulfonyl)-1,2,3,4-tetrahydroquinolin-8-yl)amino)pyrimidin-2-yl)amino)-4-methoxy-2-(methyl(2-morpholinoethyl)amino)phenyl)acrylamide]
5 | 30 to 50 | 30 to 50 | 3 | < 1 | – | 10 to 30 | < 1 | C=CC(=O)Nc1cc(Nc2ncc(Cl)c(Nc3cccc4c3N(S(C)(=O)=O)CC4)n2)c(OC)cc1N(C)CCN1CCOCC1 [Example 64, N-(5-((5-chloro-4-((1-(methylsulfonyl)indolin-7-yl)amino)pyrimidin-2-yl)amino)-4-methoxy-2-(methyl(2-morpholinoethyl)amino)phenyl)acrylamide]
6 | 10 to 30 | 10 to 30 | 1 | < 1 | – | 10 to 30 | < 1 | C=CC(=O)Nc1cc(Nc2ncc(C(=O)OC(C)C)c(Nc3cccc4c3N(S(C)(=O)=O)CC4)n2)c(OC)cc1N(C)CCN(C)C [Example 61, isopropyl 2-((5-acrylamido-4-((2-(dimethylamino)ethyl)(methyl)amino)-2-methoxyphenyl)amino)-4-((1-(methylsulfonyl)indolin-7-yl)amino)pyrimidin-5-carboxylate]
7 | < 10 | < 10 | 1 | < 1 | – | – | < 1 | C=CC(=O)Nc1cc(Nc2ncc(Cl)c(Nc3ccc(C)cc3N(C)S(C)(=O)=O)n2)c(OC)cc1N(C)CCN1CCCC1 [Example 76, N-(5-((5-chloro-4-((4-methyl-2-(N-methylmethylsulfonamido)phenyl)amino)pyrimidin-2-yl)amino)-4-methoxy-2-(methyl(2-(pyrrolidin-1-yl)ethyl)amino)phenyl)acrylamide]
8 | < 10 | 10 to 30 | 1 | < 1 | – | – | < 1 | C=CC(=O)Nc1cc(Nc2ncc(Cl)c(Nc3cccc4c3N(S(C)(=O)=O)CC4)n2)c(OC)cc1N(C)CCN1CCCCC1 [Example 72, N-(5-((5-chloro-4-((1-(methylsulfonyl)indolin-7-yl)amino)pyrimidin-2-yl)amino)-4-methoxy-2-(methyl(2-(piperidin-1-yl)ethyl)amino)phenyl)acrylamide]
9 | < 10 | < 10 | < 1 | < 1 | – | – | < 1 | C=CC(=O)Nc1cc(Nc2ncc(Cl)c(Nc3cccc4c3N(S(C)(=O)=O)CC4)n2)c(OC)cc1N(C)CCN1CCCC1 [Example 74, N-(5-((5-chloro-4-((1-(methylsulfonyl)indolin-7-yl)amino)pyrimidin-2-yl)amino)-4-methoxy-2-(methyl(2-(pyrrolidin-1-yl)ethyl)amino)phenyl)acrylamide]
10 | 10 to 30 | 10 to 30 | 5 | < 1 | – | 10 to 30 | < 1 | C=C(F)C(=O)Nc1cc(Nc2ncc(Cl)c(Nc3cccc4c3N(S(C)(=O)=O)CC4)n2)c(OC)cc1N(C)CCN(C)C [Example 66, N-(5-((5-chloro-4-((1-(methylsulfonyl)indolin-7-yl)amino)pyrimidin-2-yl)amino)-2-((2-(dimethylamino)ethyl)(methyl)amino)-4-methoxyphenyl)-2-fluoroacrylamide]
11 | 30 to 50 | 10 to 30 | – | 5 | < 10 | 50 to 100 | 1 | C=CC(=O)Nc1cc(Nc2ncc(F)c(Nc3cccc4c3N(C(C)=O)CC4)n2)c(OC)cc1N(C)CCN(C)C [Example 101, N-(5-((4-((1-acetylindolin-7-yl)amino)-5-fluoropyrimidin-2-yl)amino)-2-((2-(dimethylamino)ethyl)(methyl)amino)-4-methoxyphenyl)acrylamide]
12 | 10 to 30 | 10 to 30 | < 1 | – | – | 10 to 30 | – | C=CC(=O)Nc1cc(Nc2ncc(Cl)c(Nc3cccc4c3N(S(C)(=O)=O)CC4)n2)c(OC)cc1OCCN(C)C [Example 63, N-(5-((5-chloro-4-((1-(methylsulfonyl)indolin-7-yl)amino)pyrimidin-2-yl)amino)-2-(2-(dimethylamino)ethoxy)-4-methoxyphenyl)acrylamide]
13 | 10 to 30 | 10 to 30 | 3 | – | – | 10 to 30 | – | C=CC(=O)Nc1cc(Nc2ncc(C#N)c(Nc3cccc4c3N(S(C)(=O)=O)CC4)n2)c(OC)cc1N(C)CCN(C)C [Example 62, N-(5-((5-cyano-4-((1-(methylsulfonyl)indolin-7-yl)amino)pyrimidin-2-yl)amino)-2-((2-(dimethylamino)ethyl)(methyl)amino)-4-methoxyphenyl)acrylamide]

— patent US20240343694A1, “PYRIMIDINE DERIVATIVE, METHOD FOR PREPARING SAME, AND PHARMACEUTICAL COMPOSITION FOR PREVENTING OR TREATING CANCER COMPRISING SAME AS ACTIVE INGREDIENT” (KOREA RESERARCH INSTITUTE OF CHEMICAL TECHNOLOGY, priority 2021, published 2024)
